# Test results published in US20070135383A1, “Phospholipase inhibitors, including multi-valent phospholipase inhibitors, and use thereof, including as lumen-localized phospholipase inhibitors” (priority 2005, published 2007).
# Molecular target: T1, Porcine PLA2 IB (Sus scrofa, UniProt P00592)
# T1 construct: purchased
# Experiment: Continuous fluorimetric PLA2 assay, PPyrPG vesicles (Example 1B-1)
# Assay type: biochemical
# Conditions: restated in Example 10, refers to Example 1B-1; read-out: IC-50 value
# Description: A continuous fluorimetric assay for PLA2 activity described in the literature was used to determine IC (Leslie, C C and Gelb, M H (2004) Methods in Molecular Biology “Assaying phospholipase A2 activity”, 284: 229-242, Singer, A G, et al. (2002) Journal of Biological Chemistry “Interfacial kinetic and binding properties of the complete set of human and mouse groups I, II, V, X, and XII secreted phospholipases A2”, 277: 48535-48549, Bezzine, S, et al. (2000) Journal of Biological Chemistry “Exogenously added human group X secreted phospholipase A(2) but not the group IB, IIA, and V enzymes efficiently release arachidonic acid from adherent mammalian cells”, 275: 3179-3191) and references therein.
# Generally, this assay used a phosphatidylglycerol (or phosphatidylmethanol) substrate with a pyrene fluorophore on the terminal end of the sn-2 fatty acyl chain. […] The effect of a given inhibitor and inhibitor concentration on any given phospholipase can be determined. […]
# In this example, the procedure was performed as follows: • 1. […] The fluorescence was read using an excitation of 342 nm and an emission of 395 nm.
# In this example, the IC50 was calculated using the BioDataFit 1.02 (Four Parameter Model) software package. […]
# T1 sequence (P00592 23-146): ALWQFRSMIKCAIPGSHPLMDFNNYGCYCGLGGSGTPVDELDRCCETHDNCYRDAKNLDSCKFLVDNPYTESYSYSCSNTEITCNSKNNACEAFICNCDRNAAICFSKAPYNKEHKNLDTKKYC
smiles,measurement,value
"Cc1c(C(=O)C(N)=O)c2c(OCC(=O)O)cccc2n1Cc1ccccc1-c1ccccc1 [ILY-4001, 2-(3-(2-amino-2-oxoacetyl)-1-(biphenyl-2-ylmethyl)-2-methyl-1H-indol-4-yloxy)acetic acid]",IC50,~62 nM
